# Measured values taken from patent publication US20150275169A1, “PROCESS FOR THE LARGE SCALE PRODUCTION OF FRUIT CELLS” (BIO HARVEST LTD., priority 2012, published 2015).
# Entries after “also recorded” stand apart in the source; their conditions may differ.
# Tests used:
# [1] = in vivo; cited from earlier work
# [2] = test system: carrageenan-induced behavioral hyperalgesia in rats; assay: Hot plate method for measuring inflammatory nociception in freely moving rats; assay type: in vivo, rat; conditions: RGC 400 mg/kg oral (p<0.01) or indomethacin 2 mg/kg (p<0.05-0.01)
# Experimental: The study assessed the efficacy of the RGC by two methods: • 1. Paw volume measurements • 2. Inflammatory nociception in freely moving rats • Red Grape Cells (RGC) prepared according to example 1. • RGC was administered orally at dose of 400 mg/kg body weight as a suspension in sterile drinking water, 2 h before carrageenan injection. The dose level was 40 mg/ml. Each rat was dosed with 1 ml of suspension per 100 g body weight. • RGC Composition: […] Rats were divided into three groups of eight rats in each group. The rats in all groups were injected with 1% Carrageenan ([…]) or sterile saline (0.9% NaCl) into the sub plantar tissue of left hind paw of each rat. The Following Tests were Performed: The hot plate method was used to determine inflammatory nociception in freely moving rates. After inducing edema and treatment with vehicle, indomethacin or RGC preparation, the rats were placed on a hot plate maintained at a temperature of 55±0.5° C. The latency to flick or lick the hind paw or jump from the hot plate in comparison to its baseline was considered as the reaction time. […]
# [3] = test system: carrageenan-induced hind paw inflammation in rats; assay: Carrageenan-induced paw oedema rat model, paw volume measurements; assay type: in vivo; conditions: RGC 400 mg/kg oral or indomethacin 2 mg/kg 2 h before carrageenan, two-way ANOVA, Bonferroni, p<0.001
# From the text: The aim of the present study was to evaluate in vivo anti-inflammatory activity of RGC (Red Grape Cells) made according to the large scale process of the invention in an acute inflammation model in rats so as to verify the efficiency of the cells produced according to the invention. One of the experimental models most widely used to study acute inflammation in rodents is that based on the intraplantar administration of carrageenan. The study assessed the efficacy of the RGC by two methods: • 1. Paw volume measurements • 2. Inflammatory nociception in freely moving rats • Red Grape Cells (RGC) prepared according to example 1. • RGC was administered orally at dose of 400 mg/kg body weight as a suspension in sterile drinking water, 2 h before carrageenan injection. The dose level was 40 mg/ml. Each rat was dosed with 1 ml of suspension per 100 g body weight. • RGC Composition: […] Rats were divided into three groups of eight rats in each group. The rats in all groups were injected with 1% Carrageenan ([…]) or sterile saline (0.9% NaCl) into the sub plantar tissue of left hind paw of each rat. The Following Tests were Performed: • paw volumes were measured hourly just before carrageenan injection at time point 0 and 1, 2, 4 hours after injection using caliper. • The paw dimensions were measured in two axes and paw volume was calculated. […]
# [4] = Solubility assay of RES sources in water vs 80% methanol; assay type: physicochemical
# Experimental: RGC, synthetic resveratrol (S-RES; Sigma-Aldrich) and resveratrol extract from the plant Polygonum Capsidatum (plant-RES) were dissolved in 80% methanol to achieve 100% dissolution. Then, all RES sources were dissolved in water at pH 2 and pH 7 and the percentage of dissolution in water was compared to the dissolution in methanol. The RES in all samples was monitored at 306 nm, based on its characteristic absorption profile, and its concentration was determined by a calibration curve of resveratrol analytical standard.
compound,measurement,setting,value
Oc1ccc(/C=C/c2cc(O)cc(O)c2)cc1,shape of concentration time curve,[1],distinct single concentration peak
COc1ccc2c(c1)c(CC(=O)O)c(C)n2C(=O)c1ccc(Cl)cc1 [indomethacin],"Hot plate latency delta, baseline-actual time, comparison to vehicle control (1M)",[2]; FIG. 3,"significant decrease in the latency delta of response to the thermal stimulus, 2 and 4 hours after carrageenan injection; also recorded: statistically significant difference at 2 and 4 h"
same,"Hot plate latency, % from baseline, comparison to control group (1M)","[2]; hot plate 55°C, FIG. 2",statistically significant difference at 2 and 4 h
same,"paw edema (volume %), comparison to control group (1M)",[3],statistically significant difference at 2 and 4 h
"resveratrol (trans-3,5,4′-trihydroxystilbene) [Synthetic-RES]",dissolution in 80% methanol solution,[4]; 80% methanol,completely dissolved
same,"dissolution of RES in water, percentage compared to dissolution in methanol","[4]; acidified water pH=2 as well as pH 7.0, RES monitored at 306 nm, FIG. 5",7%
